The source of these data is PubChem BioAssay (NCI).

Test systems include 786-0 renal; NCI-H522 lung; OVCAR-3 ovarian; NCI-H460 lung; HCT-15 colon; SNB-19 CNS; T-47D breast; UO-31 renal; KM12 colon; MCF7 breast; UACC-257 melanoma; MDA-MB-435; MOLT-4 leukemia; NCI/ADR-RES ovarian; DU-145 prostate; HT29 colon; SK-OV-3 ovarian; PC-3 prostate; UACC-62 melanoma; A498 renal.
Test in all cases: NCI anticancer screen, dose series, 48 h

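Each compound was tested at five concentrations against cells in 96-well plates for 48 hours. Definition used: TGI = concentration required for complete inhibition of growth.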 Some results are limits rather than exact numbers.

As for `CC(=O)Oc1c(OC(C)C)c(C)c(O[Si](C(C)C)(C(C)C)C(C)C)c2[nH]c3ccccc3c12`, the TGI in the assay on 786-0 renal, in the assay with NCI-H522 lung, in the assay with OVCAR-3 ovarian, in the assay with NCI-H460 lung, in the assay with HCT-15 colon and with SNB-19 CNS was > 100 µM in each case. Also, the TGI in the assay with T-47D breast, in the assay with UO-31 renal, with KM12 colon, in the assay with MCF7 breast, with UACC-257 melanoma and in the assay on MDA-MB-435 was > 100 µM in each case. Besides, the TGI in the assay with MOLT-4 leukemia is > 24.2 µM; with NCI/ADR-RES ovarian, > 100 µM; with DU-145 prostate it was > 100 µM; with HT29 colon, > 100 µM; with SK-OV-3 ovarian, > 100 µM; in the assay with PC-3 prostate it was > 100 µM. For the same compound, in the assay on UACC-62 melanoma, the TGI was > 100 µM.

As to `C=C1C(=O)O[C@H]2C/C(C)=C/CC[C@]3(C)CCC[C@](C)(CC[C@@H]12)O3`, the TGI in the assay on 786-0 renal was 16.4 µM; with NCI-H522 lung, 13 µM; in the assay on OVCAR-3 ovarian it was 18.5 µM; in the assay on NCI-H460 lung, 16.9 µM; in the assay with HCT-15 colon it was > 50 µM; in the assay with SNB-19 CNS, > 50 µM. Further, the TGI came out at 25.9 µM in the assay with T-47D breast; 15.7 µM in the assay on UO-31 renal; 17.4 µM in the assay with KM12 colon; 49.4 µM in the assay with MCF7 breast; 21.7 µM with UACC-257 melanoma; 15.6 µM with MDA-MB-435. Further, the TGI in the assay on MOLT-4 leukemia was 15.7 µM; in the assay with NCI/ADR-RES ovarian it was 15.8 µM; in the assay on DU-145 prostate it was > 50 µM; in the assay on HT29 colon, 15.2 µM; in the assay with SK-OV-3 ovarian it was > 50 µM; with PC-3 prostate it was 41.5 µM. The same compound yielded a TGI in the assay with UACC-62 melanoma of 24.4 µM.

Take `CC(C)CCC[C@@H](C)C1CCC2[C@@H]3CCC4C[C@@H](NS(C)(=O)=O)CC[C@]4(C)C3CC[C@@]21C` (stereo not given in full): the TGI with 786-0 renal, in the assay on NCI-H522 lung, in the assay on OVCAR-3 ovarian, with NCI-H460 lung, with HCT-15 colon and with SNB-19 CNS was > 100 µM each time. The TGI in the assay with T-47D breast, in the assay on UO-31 renal, with KM12 colon, with MCF7 breast, with UACC-257 melanoma and with MDA-MB-435 was > 100 µM throughout. In addition, the TGI with MOLT-4 leukemia, in the assay with NCI/ADR-RES ovarian, with DU-145 prostate, with HT29 colon, in the assay on SK-OV-3 ovarian and in the assay with PC-3 prostate was > 100 µM in each case. In addition, the TGI in the assay on UACC-62 melanoma was > 100 µM.

Regarding `COC(=O)c1nn2ccc3ccccc3c2c1C(=O)OC`, the TGI in the assay on 786-0 renal, with NCI-H522 lung, with NCI-H460 lung, with HCT-15 colon, in the assay with SNB-19 CNS and in the assay on T-47D breast was > 100 µM throughout. Further, the TGI in the assay on UO-31 renal, in the assay with KM12 colon, with MCF7 breast, in the assay with UACC-257 melanoma, in the assay with MDA-MB-435 and with MOLT-4 leukemia was > 100 µM throughout. In addition, the TGI in the assay on A498 renal, with NCI/ADR-RES ovarian, with DU-145 prostate, in the assay with HT29 colon, in the assay on SK-OV-3 ovarian and with PC-3 prostate was > 100 µM throughout. Moreover, the TGI with UACC-62 melanoma was > 100 µM.

As to `O=C(O)C1CCCCN1C(=O)Cc1c[nH]c2ccccc12` (stereo not given), the TGI in the assay on 786-0 renal, with NCI-H522 lung, in the assay with OVCAR-3 ovarian, in the assay with NCI-H460 lung, in the assay with HCT-15 colon and in the assay on SNB-19 CNS was > 100 µM in each case. The TGI with T-47D breast, in the assay on KM12 colon, with MCF7 breast, in the assay with UACC-257 melanoma, in the assay on MDA-MB-435 and in the assay with MOLT-4 leukemia was > 100 µM throughout. For the same compound, the TGI with NCI/ADR-RES ovarian, with DU-145 prostate, with HT29 colon, with SK-OV-3 ovarian, in the assay with PC-3 prostate and in the assay with UACC-62 melanoma was > 100 µM throughout.

With `CN=C(N)N=Nc1c(O)[nH]c2ccccc12`, the TGI in the assay on 786-0 renal, with NCI-H522 lung, in the assay on NCI-H460 lung, in the assay with HCT-15 colon, with SNB-19 CNS and in the assay on T-47D breast was > 100 µM throughout. The TGI with UO-31 renal, in the assay on KM12 colon, in the assay on MCF7 breast, in the assay with UACC-257 melanoma, in the assay on MDA-MB-435 and in the assay on MOLT-4 leukemia was > 100 µM throughout. Further, the TGI in the assay on A498 renal, with NCI/ADR-RES ovarian, in the assay on DU-145 prostate, in the assay with HT29 colon, in the assay on SK-OV-3 ovarian and with PC-3 prostate was > 100 µM throughout. In the assay on UACC-62 melanoma, the TGI was > 100 µM.

With `CSc1nn(C)cc2nc(C)nc1-2`, the TGI in the assay on 786-0 renal, in the assay with OVCAR-3 ovarian, with NCI-H460 lung, in the assay on HCT-15 colon, in the assay on SNB-19 CNS and in the assay on T-47D breast was > 100 µM in each case. The TGI in the assay with UO-31 renal, in the assay on KM12 colon, with MCF7 breast, in the assay on UACC-257 melanoma, in the assay with MDA-MB-435 and in the assay with MOLT-4 leukemia was > 100 µM each time. Besides, the TGI with A498 renal, in the assay on NCI/ADR-RES ovarian, in the assay with DU-145 prostate, with HT29 colon, with PC-3 prostate and in the assay on UACC-62 melanoma was > 100 µM throughout.

Take `COc1cc(COC(=O)N2CC=CC2C(=O)O)c([N+](=O)[O-])cc1OC` (stereo not given): the TGI in the assay with 786-0 renal, in the assay with OVCAR-3 ovarian, in the assay on NCI-H460 lung, with HCT-15 colon, with SNB-19 CNS and with T-47D breast was > 100 µM throughout. For the same compound, the TGI in the assay on UO-31 renal, with KM12 colon, with MCF7 breast, in the assay on UACC-257 melanoma, with MDA-MB-435 and in the assay with MOLT-4 leukemia was > 100 µM in each case. Besides, the TGI with A498 renal, with NCI/ADR-RES ovarian, with DU-145 prostate, in the assay on HT29 colon, in the assay with SK-OV-3 ovarian and in the assay with PC-3 prostate was > 100 µM in each case. The TGI in the assay with UACC-62 melanoma was > 100 µM.
